Like-named read-outs stand apart in the source and are kept apart here.
How the values were obtained:
Assay in all cases: Glasshouse assay for herbicidal activity (pre- and post-emergence), percentage phytotoxicity
Assay type in all cases: in vivo
[1] = tested on: Alopecurus myosuroides (ALOMY); conditions: Alopecurus myosuroides
Outline: (§1)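 Pot-grown, standard soil. PRE: spray 1 d post-sowing; POST: ~12 d. Glasshouse 24/18 °C (warm spp.) / 20/16 °C (cool spp.), 16 h light, 65% RH, watered 2×/day. Visual % damage, 20 DAA PRE, 15 DAA POST.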

Avena fatua (AVEFA) = conditions: Avena fatua
Outline: as §1

[2] = tested on: Echinochloa crus-galli (ECHCG); conditions: Echinochloa crus-galli
Outline: as §1

Lolium perenne (LOLPE) = conditions: Lolium perenne
Outline: as §1

[3] = post-emergence, 360 h, POST-emergence, rate 250 g/ha, visual score 15 DAA (100%=total damage, 0%=no damage), read-out: Post-emergence herbicidal activity (percentage phytotoxicity) ALOMY POST
[4] = pre-emergence, 480 h, PRE-emergence, rate 250 g/ha, visual score 20 DAA (100%=total damage, 0%=no damage), read-out: Pre-emergence herbicidal activity (percentage phytotoxicity) ALOMY PRE
[5] = post-emergence, 360 h, POST-emergence, rate 250 g/ha, visual score 15 DAA (100%=total damage, 0%=no damage), read-out: Post-emergence herbicidal activity (percentage phytotoxicity) AVEFA POST
[6] = pre-emergence, 480 h, PRE-emergence, rate 250 g/ha, visual score 20 DAA (100%=total damage, 0%=no damage), read-out: Pre-emergence herbicidal activity (percentage phytotoxicity) AVEFA PRE
[7] = post-emergence, 360 h, POST-emergence, rate 250 g/ha, visual score 15 DAA (100%=total damage, 0%=no damage), read-out: Post-emergence herbicidal activity (percentage phytotoxicity) ECHCG POST
[8] = pre-emergence, 480 h, PRE-emergence, rate 250 g/ha, visual score 20 DAA (100%=total damage, 0%=no damage), read-out: Pre-emergence herbicidal activity (percentage phytotoxicity) ECHCG PRE
[9] = post-emergence, 360 h, POST-emergence, rate 250 g/ha, visual score 15 DAA (100%=total damage, 0%=no damage), read-out: Post-emergence herbicidal activity (percentage phytotoxicity) LOLPE POST
[10] = pre-emergence, 480 h, PRE-emergence, rate 250 g/ha, visual score 20 DAA (100%=total damage, 0%=no damage), read-out: Pre-emergence herbicidal activity (percentage phytotoxicity) LOLPE PRE
[11] = post-emergence, 360 h, Rate 250 g/ha, post-emergence, visual assessment 15 DAA, 100%=total damage, 0%=no damage, read-out: Post-emergence herbicidal activity (percentage phytotoxicity) ALOMY POST
[12] = pre-emergence, 480 h, Rate 250 g/ha, pre-emergence, visual assessment 20 DAA, 100%=total damage, 0%=no damage, read-out: Pre-emergence herbicidal activity (percentage phytotoxicity) ALOMY PRE
[13] = post-emergence, 360 h, Rate 250 g/ha, post-emergence, visual assessment 15 DAA, 100%=total damage, 0%=no damage, read-out: Post-emergence herbicidal activity (percentage phytotoxicity) AVEFA POST
[14] = pre-emergence, 480 h, Rate 250 g/ha, pre-emergence, visual assessment 20 DAA, 100%=total damage, 0%=no damage, read-out: Pre-emergence herbicidal activity (percentage phytotoxicity) AVEFA PRE
[15] = post-emergence, 360 h, Rate 250 g/ha, post-emergence, visual assessment 15 DAA, 100%=total damage, 0%=no damage, read-out: Post-emergence herbicidal activity (percentage phytotoxicity) ECHCG POST
[16] = pre-emergence, 480 h, Rate 250 g/ha, pre-emergence, visual assessment 20 DAA, 100%=total damage, 0%=no damage, read-out: Pre-emergence herbicidal activity (percentage phytotoxicity) ECHCG PRE
[17] = post-emergence, 360 h, Rate 250 g/ha, post-emergence, visual assessment 15 DAA, 100%=total damage, 0%=no damage, read-out: Post-emergence herbicidal activity (percentage phytotoxicity) LOLPE POST
[18] = pre-emergence, 480 h, Rate 250 g/ha, pre-emergence, visual assessment 20 DAA, 100%=total damage, 0%=no damage, read-out: Pre-emergence herbicidal activity (percentage phytotoxicity) LOLPE PRE
[19] = post-emergence, 360 h, 250 g/ha, post-emergence, 15 DAA, visual assessment (100%=total damage, 0%=no damage), read-out: Post-emergence herbicidal activity (percentage phytotoxicity) ALOMY POST
[20] = pre-emergence, 480 h, 250 g/ha, pre-emergence, 20 DAA, visual assessment (100%=total damage, 0%=no damage), read-out: Pre-emergence herbicidal activity (percentage phytotoxicity) ALOMY PRE
[21] = post-emergence, 360 h, 250 g/ha, post-emergence, 15 DAA, visual assessment (100%=total damage, 0%=no damage), read-out: Post-emergence herbicidal activity (percentage phytotoxicity) AVEFA POST
[22] = pre-emergence, 480 h, 250 g/ha, pre-emergence, 20 DAA, visual assessment (100%=total damage, 0%=no damage), read-out: Pre-emergence herbicidal activity (percentage phytotoxicity) AVEFA PRE
[23] = post-emergence, 360 h, 250 g/ha, post-emergence, 15 DAA, visual assessment (100%=total damage, 0%=no damage), read-out: Post-emergence herbicidal activity (percentage phytotoxicity) ECHCG POST
[24] = pre-emergence, 480 h, 250 g/ha, pre-emergence, 20 DAA, visual assessment (100%=total damage, 0%=no damage), read-out: Pre-emergence herbicidal activity (percentage phytotoxicity) ECHCG PRE
[25] = post-emergence, 360 h, 250 g/ha, post-emergence, 15 DAA, visual assessment (100%=total damage, 0%=no damage), read-out: Post-emergence herbicidal activity (percentage phytotoxicity) LOLPE POST
[26] = pre-emergence, 480 h, 250 g/ha, pre-emergence, 20 DAA, visual assessment (100%=total damage, 0%=no damage), read-out: Pre-emergence herbicidal activity (percentage phytotoxicity) LOLPE PRE

| Structure (SMILES) | pest or weed control at 250 g/ha [1, 3] | pest or weed control at 250 g/ha [1, 4] | pest or weed control at 250 g/ha (Avena fatua (AVEFA); [5]) | pest or weed control at 250 g/ha (Avena fatua (AVEFA); [6]) | pest or weed control at 250 g/ha [2, 7] | pest or weed control at 250 g/ha [2, 8] | pest or weed control at 250 g/ha (Lolium perenne (LOLPE); [9]) | pest or weed control at 250 g/ha (Lolium perenne (LOLPE); [10]) | pest or weed control at 250 g/ha [1, 19] | pest or weed control at 250 g/ha [1, 20] | pest or weed control at 250 g/ha (Avena fatua (AVEFA); [21]) | pest or weed control at 250 g/ha (Avena fatua (AVEFA); [22]) | pest or weed control at 250 g/ha [2, 23] | pest or weed control at 250 g/ha [2, 24] | pest or weed control at 250 g/ha (Lolium perenne (LOLPE); [25]) | pest or weed control at 250 g/ha (Lolium perenne (LOLPE); [26]) | other results |
| --- | --- | --- | --- | --- | --- | --- | --- | --- | --- | --- | --- | --- | --- | --- | --- | --- | --- |
| C/C=C/c1cc(C)c(C2C(=O)CC(CC(=O)NCc3cccc(F)c3)C2=O)c(CC)c1 (stereo not drawn) [Compound B188] | 80% | 60% | 100% | 40% | 100% | 80% | 90% | 80% | – | – | – | – | – | – | – | – | – |
| Cc1ccc(CNC(=O)CC2CC(=O)C(c3c(C)cc(-c4ccc(Cl)cn4)cc3C)C2=O)cc1 (stereo not drawn) [Compound B375] | – | – | – | – | – | – | – | – | – | – | – | – | – | – | – | – | pest or weed control at 250 g/ha [1, 11]: 40%; pest or weed control at 250 g/ha [1, 12]: 60%; pest or weed control at 250 g/ha (Avena fatua (AVEFA); [13]): 70%; pest or weed control at 250 g/ha (Avena fatua (AVEFA); [14]): 70%; pest or weed control at 250 g/ha [2, 15]: 100%; pest or weed control at 250 g/ha [2, 16]: 90%; pest or weed control at 250 g/ha (Lolium perenne (LOLPE); [17]): 80%; pest or weed control at 250 g/ha (Lolium perenne (LOLPE); [18]): 80% |
| C=CCNC(=O)CC1CC(=O)C(c2c(C)cc(C#CC)cc2C)C1=O (stereo not drawn) [Compound B157] | – | – | – | – | – | – | – | – | 100% | 100% | 100% | 90% | 100% | 100% | 100% | 100% | – |
| Cc1cc(-c2ncc(Cl)cn2)cc(C)c1C1C(=O)CC(CC(=O)NCC2CC2)C1=O (stereo not drawn) [Compound B342] | – | – | – | – | – | – | – | – | – | – | – | – | – | – | – | – | pest or weed control at 250 g/ha [1, 11]: 100%; pest or weed control at 250 g/ha [1, 12]: 100%; pest or weed control at 250 g/ha (Avena fatua (AVEFA); [13]): 100%; pest or weed control at 250 g/ha (Avena fatua (AVEFA); [14]): 90%; pest or weed control at 250 g/ha [2, 15]: 100%; pest or weed control at 250 g/ha [2, 16]: 100%; pest or weed control at 250 g/ha (Lolium perenne (LOLPE); [17]): 100%; pest or weed control at 250 g/ha (Lolium perenne (LOLPE); [18]): 100% |
| Cc1cc(C)c(C2C(=O)CC(CC(=O)NCCF)C2=O)c(C)c1 (stereo not drawn) [Compound B61] | – | – | – | – | – | – | – | – | 80% | 70% | 90% | 70% | 90% | 90% | 90% | 90% | – |
| Cc1cc(C)c(C2C(=O)CC(CC(=O)NCc3ccc(F)cc3)C2=O)c(C)c1 (stereo not drawn) [Compound B16] | – | – | – | – | – | – | – | – | 70% | 80% | 70% | 30% | 90% | 90% | 90% | 90% | – |
| Cc1cc(-c2ncc(F)cc2F)cc(C)c1C1C(=O)CC(CC(=O)NCc2ccc(C#N)cn2)C1=O (stereo not drawn) [Compound B202] | 90% | 80% | 80% | 70% | 90% | 70% | 70% | 60% | – | – | – | – | – | – | – | – | – |
| Cc1cc(C)c(C2C(=O)CC(CC(=O)NCC#CCCl)C2=O)c(C)c1 (stereo not drawn) [Compound B36] | – | – | – | – | – | – | – | – | 30% | 50% | 40% | 0% | 20% | 0% | 50% | 80% | – |
| CCNC(=O)CC1CC(=O)C(c2c(C)cc(-c3ncc(Cl)cc3F)cc2C)C1=O (stereo not drawn) [Compound B103] | – | – | – | – | – | – | – | – | 100% | 100% | 100% | 90% | 100% | 100% | 100% | 100% | – |
| CCNC(=O)CC1CC(=O)C(c2c(C)cc(-c3ccc(Cl)cn3)cc2C)C1=O (stereo not drawn) [Compound B306] | 100% | 100% | 100% | 100% | 100% | 100% | 100% | 100% | – | – | – | – | – | – | – | – | – |
| CC#Cc1cc(C)c(C2C(=O)CC(CC(=O)NCc3cccc(F)c3)C2=O)c(C)c1 (stereo not drawn) [Compound B183] | 100% | 100% | 100% | 90% | 100% | 100% | 90% | 100% | – | – | – | – | – | – | – | – | – |
| Cc1ccc(CNC(=O)CC2CC(=O)C(c3c(C)cc(C)cc3C)C2=O)cc1 (stereo not drawn) [Compound B14] | – | – | – | – | – | – | – | – | 70% | 70% | 80% | 70% | 90% | 70% | 90% | 90% | – |
| Cc1cc(-c2ncc(F)cc2F)cc(C)c1C1C(=O)CC(CC(=O)NCc2ccc(F)cc2)C1=O (stereo not drawn) [Compound B72] | – | – | – | – | – | – | – | – | 100% | 100% | 100% | 70% | 100% | 100% | 100% | 100% | – |
| Cc1cc(-c2ncc(F)cc2F)cc(C)c1C1C(=O)CC(CC(N)=O)C1=O (stereo not drawn) [Compound B54] | – | – | – | – | – | – | – | – | 100% | 80% | 100% | 80% | 100% | 80% | 100% | 80% | – |
| C=C(C)CNC(=O)CC1CC(=O)C(c2c(C)cc(-c3ncc(C#N)cn3)cc2C)C1=O (stereo not drawn) [Compound B287] | 90% | 90% | 100% | 90% | 100% | 100% | 90% | 90% | – | – | – | – | – | – | – | – | – |
